Assay results taken from patent publication US12636371B2, “Chemically coupled transporter for low-hydrophobicity bioactive drugs into the central nervous system” (Skybio LLC, priority 2021, dated 2026).
Converted amounts (≈) assume the structure as drawn. Where two headings read alike, the source gives them in different places.

Experiments:
[1] = tested on: E. coli DH5α; assay: Antibiotic activity by disc diffusion assay (MIC); assay type: cell-based; details: for MIC: Escherichia coli; for RATE MIC Compound/Doxycycline: ratio of MIC to doxycycline MIC
Experimental: In order to examine the antibiotic activity of the compounds synthesized in Example 1, an assay was performed using E. coli DH5α (Gram(−)), as a sensitive, indicator strain.
The antibacterial activities of test compounds were evaluated using the disc diffusion method (Kavanagh, F. Dilution methods of antibiotic assays in Analytical Microbiology. 1963; Pomares M F, Vincent P A, Farías R N, Salomón R A. Protective action of ppGpp in microcin J25-sensitive strains. J Bacteriol. 2008-190:4328-34). Briefly, filter-paper discs impregnated with 10 μl of two-fold serial dilutions of the test compounds, and were placed onto LB solid medium Petri dishes. Then, aliquots (50 μl) of an E. coli DH5α culture in stationary phase were mixed with 3 ml of top agar (0.7% agar) and overlaid onto the plates. After overnight incubation at 37° C., the plates were examined for different degrees of inhibition. Inhibition degrees produced by the test compound are expressed as Minimum Inhibitory Concentrations (MICs), defined as the lowest concentration of a compound that inhibit visible growth of bacteria. Each test was performed in duplicate vs. the reference compound Doxycycline.

[2] = target: D2 dopamine receptor (Homo sapiens, UniProt P14416); assay: D2 receptor agonist assay, cAMP Nomad biosensor, U2OS_cAMPNmd_FP650_D2 cells; assay type: cell-based; details: 24 h, 10 serial 1:3 dilutions from 30 μM, triplicate
D2 dopamine receptor, sequence (P14416 whole entry): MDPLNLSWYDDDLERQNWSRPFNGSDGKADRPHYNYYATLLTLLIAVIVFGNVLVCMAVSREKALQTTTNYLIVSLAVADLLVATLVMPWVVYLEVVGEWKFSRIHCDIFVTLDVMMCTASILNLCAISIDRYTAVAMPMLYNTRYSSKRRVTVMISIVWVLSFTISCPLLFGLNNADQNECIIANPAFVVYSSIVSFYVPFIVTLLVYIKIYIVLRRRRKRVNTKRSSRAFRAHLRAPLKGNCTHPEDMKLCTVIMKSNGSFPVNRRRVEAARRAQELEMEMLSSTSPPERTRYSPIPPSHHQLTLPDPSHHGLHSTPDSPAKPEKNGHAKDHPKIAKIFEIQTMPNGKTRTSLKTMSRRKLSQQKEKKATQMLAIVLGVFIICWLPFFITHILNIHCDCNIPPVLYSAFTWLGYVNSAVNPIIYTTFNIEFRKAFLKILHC
Experimental: HEK_cAMPNmd_FP650_D1 and U2OS_cAMPNmd_FP650_D2 cells were seeded at a density of 30.000 and 20.000 cells/well, respectively, in 96-well plates. Cells were maintained in DMEM or DMEM-F12 medium supplemented with 10% FBS during 24 h at 37° C. in a humidified 5% CO2 atmosphere.
Cells were then incubated for 24 h.
To detect Nomad biosensor activation, the assay medium was removed and replaced by […] of DPBS with calcium and magnesium. […] In U2OS_cAMPNmd_FP650_D2 cells, images were acquired using the CellInsight CX7 HCS Platform, and the number of fluorescent vesicles per cell was quantified with the HCS Studio Cell Analysis Software.
The effect of the compounds in the regulation of D1 or D2 receptors' activation was analyzed measuring the CAMP signaling using the Nomad biosensor-based assay.
This same experiment was carried out in the U2OS_cAMPNmd_FP650_D2 cell line (FIG. 10). The effect of the compounds was analyzed quantifying the number of fluorescent vesicles in the cytoplasm of the cells using the HCS Studio Cell Analysis Software.

[3] = target: D1 dopamine receptor (Homo sapiens, UniProt P21728); assay: D1 receptor agonist assay, cAMP Nomad biosensor, HEK_cAMPNmd_FP650_D1 cells; details: 24 h, 10 serial 1:3 dilutions from 30 μM, triplicate
D1 dopamine receptor, sequence (P21728 whole entry): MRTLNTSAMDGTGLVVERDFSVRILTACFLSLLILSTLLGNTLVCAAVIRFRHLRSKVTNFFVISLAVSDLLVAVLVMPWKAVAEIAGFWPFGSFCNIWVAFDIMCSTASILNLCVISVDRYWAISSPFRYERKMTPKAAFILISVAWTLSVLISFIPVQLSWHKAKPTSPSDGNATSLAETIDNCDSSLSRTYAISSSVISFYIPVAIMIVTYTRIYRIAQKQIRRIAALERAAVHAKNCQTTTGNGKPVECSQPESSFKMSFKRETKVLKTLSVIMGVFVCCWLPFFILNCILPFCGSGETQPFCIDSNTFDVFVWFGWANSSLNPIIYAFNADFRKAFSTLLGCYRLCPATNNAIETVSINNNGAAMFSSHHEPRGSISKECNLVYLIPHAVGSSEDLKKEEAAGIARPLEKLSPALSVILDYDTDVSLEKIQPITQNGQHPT
Experimental: To detect Nomad biosensor activation, the assay medium was removed and replaced by 100 ml of DPBS with calcium and magnesium. […] In U2OS_cAMPNmd_FP650_D2 cells, images were acquired using the CellInsight CX7 HCS Platform, and the number of fluorescent vesicles per cell was quantified with the HCS Studio Cell Analysis Software.

[4] = tested on: SH-SY5Y cells; assay: CellROX assay of intracellular reactive oxygen species induced by ASf; assay type: cell-based; details: 10 μM compound alone, 24 h
Experimental: In order to characterize the antioxidant properties of D9, its protective action on the AS-induced production of reactive oxygen species (ROS) in a cellular model was assessed. For this, SH-SY5Y cells were treated with fibrils of AS (ASf) (AS incubated 120 h at 37° C. and 600 rpm), and the reactive oxygen species produced were examined using the CellROX® Orange Reagent (Invitrogen), which undergoes oxidation by ROS to form a stable fluorescent compound.
In addition, cells were also treated with doxycycline 10 μM+7 μM ASf (ASf+Doxy) as a positive control, and 10 μM doxycycline alone (Doxy). All conditions were incubated 24 h at 37° C. and 5% CO2. […] Fluorescent images of randomly chosen fields were acquired with identical acquisition parameters using a Zeiss Axio Vert.A1 inverted fluorescence microscope.

[5] = disc diffusion, two-fold serial dilutions from 2 mg/ml, LB solid medium, overnight 37° C., read-out: MIC

| Compound | MIC [1, 5] [µg/mL] | RATE MIC Compound/Doxycycline [1] | MIC [1] [µg/mL] | EC50, D2 receptor activation [2] | EC50, D1 receptor activation [3] | Intracellular ROS induced by compound alone [4] |
| --- | --- | --- | --- | --- | --- | --- |
| C[C@H]1c2cccc(O)c2C(=O)C2=C(O)[C@]3(O)C(=O)C(C(N)=O)=C(O)C(N(C)C)C3[C@@H](O)C21 (some centres unmarked) [Compound D1, Doxycycline Free Form, reference compound] | 31.2 (≈ 70.3 µM) | 1 | – | – | – | – |
| C[C@H]1c2cccc(O)c2C(=O)C2=C(O)[C@]3(O)C(=O)C(C(N)=O)=C(O)CC3[C@@H](O)C21 (some centres unmarked) [Compound D3, 4-dedimethylaminodoxycycline] | – | 16 | 500 (≈ 1250 µM) | – | – | – |
| C[C@H]1c2ccc([N+](=O)[O-])c(O)c2C(=O)C2=C(O)[C@]3(O)C(=O)C(C(N)=O)=C(O)CC3[C@@H](O)C21 (some centres unmarked) [Compound D4, 4-dedimethylamino-9-nitro doxycycline] | 1000 (≈ 2240 µM) | 32 | – | – | – | – |
| C[C@H]1c2ccc(N)c(O)c2C(=O)C2=C(O)[C@]3(O)C(=O)C(C(N)=O)=C(O)CC3[C@@H](O)C21 (some centres unmarked) [Compound D5, 9-amino-4-dedimethylamino doxycycline] | 250 (≈ 600 µM) | 8 | – | did not act as an agonist of the D2 receptor | did not act as an agonist of the D1 receptor | – |
| C[C@H]1c2ccc(NC(=O)CCl)c(O)c2C(=O)C2=C(O)[C@]3(O)C(=O)C(C(N)=O)=C(O)CC3[C@@H](O)C21 (some centres unmarked) [Compound D6, 9-(2-chloroacetamido)-4-dedimethylamino doxycycline] | – | 64 | 2000 (≈ 4060 µM) | – | – | – |
| C[C@H]1c2cccc(O)c2C(=O)C2=C(O)[C@]3(O)C(=O)C(C(N)=O)=C(O)[C@@H](N(C)C)[C@@H]3[C@@H](O)[C@@H]21 [Doxycycline, reference compound] | 31.2 (≈ 70.3 µM) | – | – | – | – | neither the presence of D9 nor doxycycline induced intracellular ROS |
